In patent US6573045B1, “Methods and kits for discovery of RNA-binding compounds” (Ribotargets, Ltd., priority 1998, dated 2003):
Like-named read-outs stand apart in the source and are kept apart here.

Experiments:
TAR RNA Duplex-2 = assay: Competition binding assay, FAM-labelled TAR RNA Duplex-2 / TAMRA-labelled ADP-1; parameters: species or system HIV; conditions: saturating concentrations of ADP-1 competitor
Excerpt: In order to obtain efficient fluorescent resonance energy transfer and/or quenching it is important that the fluorescent groups are placed on the reporter and the target RNA to permit close contact between the donor and acceptors after complex formation. In this experiment the FAM group on the TAR RNA target (Duplex 2) has been displaced by the addition of a base pair. This alteration to the target RNA structure has the effect of increasing the distance of the FAM group from the binding site on the TAR RNA duplex by 2 Å more than the equivalent group on the TAR RNA Duplex 1 target. In addition, insertion of the base pair rotates the FAM group by 18° compared to the equivalent group in the Duplex-1 TAR RNA target.
Because Duplex-2 has a sub-optimal spacing of the FAM-label on TAR RNA it gives rise to a poor signal in the assay compared to Duplex-1, with a less than 50% rise in fluorescence in the presence of saturating concentrations of ADP-1 competitor.

TAR RNA = assay: Competition binding assay, FAM-labelled TAR RNA Duplex-1 / TAMRA-labelled ADP-1; parameters: species or system HIV; conditions: for Ki: 2 nM FAM-labelled TAR RNA, 18 nM unlabelled TAR RNA; for binding to TAR RNA (competitor efficiency): FIG. 8 and FIG. 9
Experimental: This experiment was performed with a starting condition in which there is an equimolar ratio of TAMRA-labelled ADP-1 peptide and TAR RNA (both labelled and unlabelled). A pre-mix is prepared on ice containing 2 nM FAM-labelled TAR RNA, 18 nM unlabelled TAR RNA and 20 nM TAMRA-labelled ADP-1 peptide diluted in TK buffer to provide the final concentrations (as detailed above) in each 200 μl reaction volume. The ADP-1 peptide was prepared as a 2 fold dilution series in TK buffer at 10 times the assay concentration and diluted 10 fold into the final assay volume. The competition assays were equilibrated for 15 minutes at room temperature and the fluorescence-emission spectra at 535 nm determined in a Wallac Victor™ 1420 following excitation at 485 nm.
Under these conditions, the Ki for the unlabelled ADP-1 competitor was measured as 100 nM.
TAMRA-labelled ADP-1 peptide and increasing concentrations of C5 cyclic peptide (SEQ ID 9). A pre-mix is prepared on ice containing the FAM-labelled TAR RNA, unlabelled TAR RNA and the TAMRA-labelled ADP-1 peptide diluted in TK buffer to provide the final concentrations (as detailed above) in each 200 μl reaction volume. The C5 cyclic peptide was prepared as a 2 fold dilution series in TK buffer at 10 times the assay concentration and diluted 10 fold in to the final assay volume.

FAM-labelled TAR RNA = assay: Quenching of FAM-labelled TAR RNA by unlabelled ADP-1 peptide; format: binding, HIV; conditions: 2 nM FAM-TAR
Experimental: The FAM-TAR was diluted from a 100 nM stock solution in TK buffer (50 mM Tris-HCl pH7.6, 20 mM KCl) to obtain a final assay concentration of 2 nM in 200 μl reaction volume. The unlabelled ADP-1 peptide was prepared in TK buffer as a 2 fold dilution series at 10 times the assay concentration and diluted 10 fold into the final assay volume (200 μl). After complex formation was performed for 20 minutes at room temperature the fluorescence-emission at 535 nm was determined in a Wallac Victor™ 1420 following excitation at 485 nm.
The level of fluorescence obtained in the absence of the unlabelled ADP-1 peptide is normalised to 100% and the levels of fluorescence obtained in the presence of the unlabelled ADP-1 peptide are expressed as a percentage of this value.

[1] = target: FAM-labelled TAR RNA duplex 1; assay: Quenching of FAM-labelled TAR RNA by TAMRA-labelled ADP-1 (complex formation); format: binding, HIV
Experimental: In this experiment, 2 nM FAM-labelled TAR RNA was mixed with increasing concentrations of TAMRA-labelled ADP-1 peptide. The FAM-TAR was diluted from a 100 nM stock solution in TK buffer (50 mM Tris-HCl pH 7.6, 20 mM KCl) to obtain a final assay concentration of 2 nM in 200 μl reaction volume. The TAMRA-labelled ADP-1 peptide was prepared in TK buffer as a 2-fold dilution series at 10 times the assay concentration and diluted 10 fold in to the final assay volume (200 μl). Complex formation was performed for 20 minutes at room temperature and the fluorescence-emission spectra at 535 nm determined in a Wallac Victor™ 1420 following excitation at 485 nm.
The level of fluorescence obtained in the absence of TAMRA-labelled ADP-1 peptide gave a fluorescence intensity of 2100 units. As the ADP-1 concentration is increased there is a progressive loss of fluorescence intensity detected, until at concentrations of ADP-1 greater than 100 nM there is over 80% loss of fluorescence intensity and there is no further quenching detected.

RRE RNA = assay: Dabcyl-peptide binding to Fam-labelled RNA (quenching), RRE; parameters: species or system HIV; conditions: for Kd: RRE, 110 mM KCl
Excerpt: (§1) A representative subset comprising 40 peptide sequences from the total of 243 possible sequences was synthesised and is shown in Table 6. The peptides from the library are: No. 3 (SEQ ID NO:11), 4 (SEQ ID NO:12), 5 (SEQ ID NO:13), 6 (SEQ ID NO:14), 7 (SEQ ID NO:15), 8 (SEQ ID NO:16), 9 (SEQ ID NO:17), 10 (SEQ ID NO:18), 11 (SEQ ID NO:19), 12 (SEQ ID NO:20), 13 (SEQ ID NO:21), 14 (SEQ ID NO:22), 15 (SEQ ID NO:23), 16 (SEQ ID NO:24), 17 (SEQ ID NO:25), 18 (SEQ ID NO:26), 19 (SEQ ID NO:27), 20 (SEQ ID NO:28), 21 (SEQ ID NO:29), 22 (SEQ ID NO:30), 23 (SEQ ID NO:31), 24 (SEQ ID NO:32), 25 (SEQ ID NO:33), 26 (SEQ ID NO:34), 27 (SEQ ID NO:35), 28 (SEQ ID NO:36), 29 (SEQ ID NO:37), 30 (SEQ ID NO:38), 31 (SEQ ID NO:39), 32 (SEQ ID NO:40), 33 (SEQ ID NO:41), 34 (SEQ ID NO:42), 35 (SEQ ID NO:43), 36 (SEQ ID NO:44), 37 (SEQ ID NO:45), 38 (SEQ ID NO:46), 39 (SEQ ID NO:47), 40 (SEQ ID NO:48), 41 (SEQ ID NO:49), 42 (SEQ ID NO:50). These peptides were assayed for their ability to bind to range of RNA sequences carrying fluorescein attached to the 5′ end, as shown in FIG. 25.
(§2) FIG. 26. presents binding data for the peptide sequence 5 (KKQKR) (SEQ ID NO: 13) and the 4 RNA sequences. Reactions (100 μl) containing Fam-labelled RNA (10 nM) were mixed with increasing concentrations of Dabcyl-labelled ADP-1 peptide (up to 250 nM) in 50 mM Tris/Cl, pH7.4, 20 mM or 110 mM KCl (as indicated), 5 μg/ml BSA, 0.01% Triton X-100, 1% DMSO. Fluorescence (excitation 490 nm/emission at 535 nm) was determined using a Victor plate reader.
(§3) Dissociation constants were determined by fitting a binding isotherm (1-site-binding) to the data using the equation:
(§4) Y=((Fmax−Fmin)−((Fmax−Fmin)*X/(Kd+X)))+Fmin
(§5) where Fmax is fluorescence in the absence of quencher, Fmin is fluorescence at saturation, and X is peptide concentration.

TAR bulge RNA = assay: Dabcyl-peptide binding to Fam-labelled RNA (quenching), TAR; parameters: species or system HIV; conditions: 110 mM KCl
Excerpt: as §1, §2, §3, §4, §5

ss-19mer RNA = assay: Dabcyl-peptide binding to Fam-labelled RNA (quenching), single stranded RNA; conditions: for Kd: ss-19mer, 110 mM KCl
Excerpt: as §1, §2, §3, §4, §5

GTPase-LHL RNA = assay: Dabcyl-peptide binding to Fam-labelled RNA (quenching), GTPase LHL; conditions: for Kd: GTPase-LHL, 110 mM KCl; for binding to the GTPase RNA: FIG. 27
Excerpt: as §1, §2, §3, §4, §5

[2] = 20 nM TAMRA-labelled ADP-1, 0-100 μM cyclic peptide, average ± SD of three, read-out: Ki

Substance	Kd (TAR bulge RNA) [µM]	Kd (ss-19mer RNA) [µM]	Kd (GTPase-LHL RNA) [µM]	further results
ADP-1: unlabelled peptide derived from HIV Tat, residues 37 to 72 (SEQ ID NO: 7) (FTTKALGISYGRKKRRQRRRPPQGSGTHQVSLSKQ; Human immunodeficiency virus)				rise in fluorescence (TAR RNA Duplex-2): less than 50%; Ki (TAR RNA; 20 nM TAMRA-labelled ADP-1, read-out: Ki for the unlabelled ADP-1 competitor): 0.1 µM; quenching of the FAM group present on TAR RNA (FAM-labelled TAR RNA): ≤ 20%
TAMRA-Phe-Thr-Thr-Lys-Ala-Leu-Gly-Ile-Ser-Tyr-Gly-Arg-Lys-Lys-Arg-Arg-G ln-Arg-Arg-Arg-Pro-Pro-Gln-Gly-Ser-Gln-Thr-His-Gln-Val-Ser-Leu-Ser-Lys-Gln [TAMRA-labelled ADP-1]				Kd ([1]; 2 nM FAM-labelled TAR RNA, TK buffer, read-out: binding constant (Kd) of TAMRA-labelled ADP-1 for FAM-labelled TAR RNA duplex 1): ~0.025 µM; loss of fluorescence intensity ([1]; concentrations of ADP-1 greater than 100 nM): over 80%
c(KRRFR) [C5] (cyclo(KRRFR); also: D-residues marked by underlining, not recoverable) [cyclic pentapeptide]				Ki (TAR RNA; [2]): 1.87 ± 0.42 µM; binding to TAR RNA (competitor efficiency) (TAR RNA): most efficient competitors
cyclo(KRRFR) [C5/1]				Ki (TAR RNA; [2]): 15.3 ± 2.5 µM
cyclo(KRRFR) [C5/2]				Ki (TAR RNA; [2]): 12.7 ± 6.58 µM
cyclo(KRRFR) [C5/3]				Ki (TAR RNA; [2]): 15.2 ± 3.79 µM
cyclo(KRRFR) [C5/4]				Ki (TAR RNA; [2]): 8.28 ± 3.01 µM; binding to TAR RNA (competitor efficiency) (TAR RNA): most efficient competitors
cyclo(KRRFR) [C5/5]				Ki (TAR RNA; [2]): 17.1 ± 13 µM
library peptide Dabcyl-Thr-Arg-Lys-X-X-X-X-X-Arg-Lys-Ser-Gly with X5 = KKKKK	0.024	> 0.5	0.026	Kd (RRE RNA): 0.012 µM
library peptide Dabcyl-Thr-Arg-Lys-X-X-X-X-X-Arg-Lys-Ser-Gly with X5 = KKKQR	0.027	> 0.5	0.076	Kd (RRE RNA): 0.03 µM
library peptide Dabcyl-Thr-Arg-Lys-X-X-X-X-X-Arg-Lys-Ser-Gly with X5 = KKQKR	0.056	> 0.5	0.074	binding of the peptide, measured by quenching of the fluorescenated RNA (RRE RNA; RRE sequence compared with the other RNAs, FIG. 26): highest affinity binding; Kd (RRE RNA): 0.015 µM; binding of the peptide, measured by quenching of the fluorescenated RNA (ss-19mer RNA; single stranded RNA, FIG. 26): no significant binding
library peptide Dabcyl-Thr-Arg-Lys-X-X-X-X-X-Arg-Lys-Ser-Gly with X5 = KKQRR		> 0.5	0.055	Kd (RRE RNA): 0.02 µM
library peptide Dabcyl-Thr-Arg-Lys-X-X-X-X-X-Arg-Lys-Ser-Gly with X5 = KKRQR		> 0.5	0.043	Kd (RRE RNA): 0.024 µM
library peptide Dabcyl-Thr-Arg-Lys-X-X-X-X-X-Arg-Lys-Ser-Gly with X5 = KQKKR	0.016			
library peptide Dabcyl-Thr-Arg-Lys-X-X-X-X-X-Arg-Lys-Ser-Gly with X5 = KQKRR	0.011			
library peptide Dabcyl-Thr-Arg-Lys-X-X-X-X-X-Arg-Lys-Ser-Gly with X5 = KQQQR	> 0.5			
library peptide Dabcyl-Thr-Arg-Lys-X-X-X-X-X-Arg-Lys-Ser-Gly with X5 = KQRQR	0.009			
library peptide Dabcyl-Thr-Arg-Lys-X-X-X-X-X-Arg-Lys-Ser-Gly with X5 = QQQKR	> 0.5			
library peptide Dabcyl-Thr-Arg-Lys-X-X-X-X-X-Arg-Lys-Ser-Gly with X5 = QQQQQ		> 0.5	> 0.5	binding to the GTPase RNA (GTPase-LHL RNA): no significant binding
library peptide Dabcyl-Thr-Arg-Lys-X-X-X-X-X-Arg-Lys-Ser-Gly with X5 = QQQRR	> 0.5			
library peptide Dabcyl-Thr-Arg-Lys-X-X-X-X-X-Arg-Lys-Ser-Gly with X5 = RQQQR	> 0.5			
library peptide Dabcyl-Thr-Arg-Lys-X-X-X-X-X-Arg-Lys-Ser-Gly with X5 = RRRRR		0.194	0.016	Kd (RRE RNA): 0.03 µM; binding to the GTPase RNA (GTPase-LHL RNA): Efficient binding
